Test results taken from patent publication US5312900A, “23K protein with binding specificity for queuine” (La Jolla Cancer Research Foundation, priority 1991, dated 1994).
“Also recorded” adds a separate entry of the source.

How the values were obtained:
[1] = test system: ^125 I-Queb (23K protein); assay: Binding of ^125 I-Queb to ligand-sepharose; design: species or system bovine; details: for Unbound CPM: 1×10^6 cpm ^125 I-Queb incubated 2 hours with ligand-sepharose, CPM in supernatant and three PBS/Ca++; for Unbound CPM / Bound CPM: Mg++ washes, n = 3; for Bound CPM: CPM associated with sepharose after removal of supernatant and three PBS/Ca++, ± S.D.; for % Bound: share of available ^125 I-Queb bound to ligand-sepharose; for Binding of ^125 I-Queb to ligand-sepharose and its elution (in words): successive elution with 20mM EDTA, 1M NaCl, 1M urea, 8M urea
Experimental: Queb was isolated from the 15% SDS-PA gels by electroelution, and labelled with ^125 I according to Example IV. […] Equal quantities (1×10^6 cpm, 50 μl ) of ^125 I-Queb were incubated for 2 hours with equal aliquots (50 μl ) of ligand-sepharose. The buffer was then isolated and the sepharose was washed with PBS until less than 1×10^4 cpm were measured in the eluent.

Queb = assay: Affinity chromatography of BAF proteins on ligand-sepharose with stepwise elution; type: binding, bovine; details: third trimester BAF; elution with 20 mM EDTA, 1M NaCl, 1M urea, 8M urea
From the text: The isolation of Queuine binding factors was completed using affinity chromatography. CNBr-activated sepharose 4B (Pharmacia) was coupled with Queuine, guanosine or glycine using the manufacturers described procedure. The coupling ratio of Queuine to the amount of dry sepharose was 2.7 μmole to 0.1 g and the ratio of guanosine to sepharose was 1.3 μmole to 0.1 g. The procedure used targeted coupling of Queuine and guanosine at the 2-amino group of the purine ring.
The affinity-sepharose was equilibrated with phosphate buffered saline (PBS) containing 2 mM CaCl2, and MgCl2 contained in a glass pipette. The sample was allowed to flow through the column containing the affinity-sepharose, and the bound material was eluted with a successive series of PBS buffers (pH 7.5) containing: 20 mM EDTA, 1M NaCl, 1M urea, 8M urea. Once eluted, the protein was precipitated with 95% ethanol containing 0.5M potassium acetate, washed twice in 95% ethanol, and then solubilized in SDS-PAGE sample buffer, 0.25M tris-HCl, pH 6.8; 10% glycerol; 2% SDS; 0.0025% bromophenol blue.
Third trimester BAF (50 ml) was passed over a 0.4 ml Queuine-sepharose column. The column was then washed with PBS containing 2mM of CaCl2 and MgCl2 until the eluent contained<0.01 OD (280 nm). […] Eluent fractions (200 μl ) were collected and spectrophotometrically monitored (280 nm). […]

HL-60 cells = assay: Differentiation response of HL-60 cells; type: cell-based; details: TPA-induced differentiation where stated
[2] = test system: HL 60 cells (ATCC No. CCL 240); assay: Cell growth of HL 60 cells; type: cell-based
^125 I-Queb = assay: Effect of TPA on ^125 I-Queb binding to Queuine-sepharose; design: species or system bovine; details: TPA at 50% of the concentration of Queuine bound to sepharose
Experimental: TPA, at 50% of the concentration of the Queuine bound to sepharose, was evaluated for its ability to antagonize ^125 I-Queb binding to Queuine-sepharose. FIG. 3A illustrates the ^125 I-Queb binding without TPA and FIG. 3B illustrates the results with TPA. […] However, the elution patterns of ^125 I-Queb from the Queuine-sepharose was altered in the TPA samples.

Row | Unbound CPM [1] | Bound CPM [1] | Binding of ^125 I-Queb to ligand-sepharose and its elution (in words) [1] | Binding of ^125 I-Queb to ligand-sepharose and its elution (in words) ([1]; listed as guanine) | Compound | % Bound [1] [%] | Binding of Queb from BAF to ligand-sepharose column (Queb) | Effect on differentiation response (in words) (HL-60 cells) | Effect on cell growth (in words) [2] | IC50 ([2]; Homo sapiens, read-out: ID50, inhibition of cell growth) [µM] | Effect on amount of ^125 I-Queb bound to Queuine-sepharose (in words) (^125 I-Queb) | Effect on elution of ^125 I-Queb from Queuine-sepharose (in words) (^125 I-Queb; without TPA 8 M urea needed)
1 | 843,385 CPM | 104,740 ± 12,885 CPM | No ^125 I-Queb was found eluted | minimal amount | Nc1nc2c(ncn2[C@@H]2O[C@H](CO)[C@@H](O)[C@H]2O)c(=O)[nH]1 [Guanosine] | 11.05 | no presence of Queb that bound with high affinity; also recorded: did not bind |  |  |  |  | 
2 | 404,060 CPM | 851,350 ± 91,830 CPM | only eluted by 8M urea |  | Nc1nc2[nH]cc(CN[C@H]3C=C[C@H](O)[C@@H]3O)c2c(=O)[nH]1 [Queuine] |  | eluted only under stringent elution conditions of 8 M urea; also recorded: high binding affinity | modulate the ability of cells to respond to differentiation signals; also recorded: markedly sensitized HL-60 cells to a TPA-induced differentiation response; also recorded: inhibit TPA when used concurrently | both stimulate and inhibit | 7.8 |  | 
3 |  |  |  |  | CCCCCCCCCCCCCC(=O)O[C@@H]1[C@@H](C)[C@@]2(O)[C@@H](C=C(CO)C[C@]3(O)C(=O)C(C)=C[C@@H]23)[C@@H]2C(C)(C)[C@]12OC(C)=O [TPA, 12-O-tetradecanoyl-phorbol-13-acetate] |  |  |  |  |  | did not quantitatively alter | 20 mM EDTA was able to elute and eluted under milder conditions of 20 mM EDTA

Row | Compound | Unbound CPM [1] | Bound CPM [1] | Binding of ^125 I-Queb to ligand-sepharose and its elution (in words) [1] | Binding of ^125 I-Queb to ligand-sepharose and its elution (in words) ([1]; listed as guanine) | % Bound [1] [%] | Binding of Queb from BAF to ligand-sepharose column (Queb) | Effect on differentiation response (in words) (HL-60 cells) | Effect on cell growth (in words) [2] | IC50 ([2]; Homo sapiens, read-out: ID50, inhibition of cell growth) [µM] | Effect on amount of ^125 I-Queb bound to Queuine-sepharose (in words) (^125 I-Queb) | Effect on elution of ^125 I-Queb from Queuine-sepharose (in words) (^125 I-Queb; without TPA 8 M urea needed)
4 | NCC(=O)O [Glycine] | 802,682 CPM | 70,500 ± 8,800 CPM | minimal amount |  | 8.08 |  |  |  |  |  | 
